In data set [1] the target is T1, ∆1-191 APC1 (∆1-191_APC1) (Homo sapiens, UniProt Q6NUK1).
T1 construct: gene SLC25A24; carrier domain only, N-terminal truncation; His8-Factor Xa tag cut, primer adds TSED after IEGR; in liposomes
T1 sequence (Q6NUK1 191-477): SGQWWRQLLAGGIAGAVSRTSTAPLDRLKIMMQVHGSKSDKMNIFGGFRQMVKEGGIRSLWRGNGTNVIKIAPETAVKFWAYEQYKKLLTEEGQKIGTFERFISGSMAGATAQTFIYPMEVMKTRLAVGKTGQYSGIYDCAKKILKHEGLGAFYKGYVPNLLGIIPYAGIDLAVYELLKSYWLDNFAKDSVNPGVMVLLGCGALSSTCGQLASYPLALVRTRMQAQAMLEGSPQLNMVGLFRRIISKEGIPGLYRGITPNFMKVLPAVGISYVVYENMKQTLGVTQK
As to the kind of experiment: counter-exchange of internal ADP with external […]-ATP in proteoliposomes. It is filed as biochemical. The settings on record: 2.5 mM internal ADP; 5 mM MgCl2 outside; pH 7.4, 20 °C.

Data set [2] concerns the target T1, ∆1-191 APC1 (∆1-191_APC1). In words: […]-ATP uptake into proteoliposomes, initial rates. It is filed as biochemical. Particulars: 1.5 μM external ATP exchanged for 2.5 mM internal ADP; 5 mM MgCl2 outside; pH 7.4, 20 °C; labelled compound.
Substrate in the data set “purified protein”: Nc1ncnc2c1ncn2[C@@H]1O[C@H](COP(=O)(O)OP(=O)(O)OP(=O)(O)O)[C@@H](O)[C@H]1O
In words: purified protein. Particulars: 4 mM total external CaCl2 (calcium-activated state), 2.5 mM internal ATP, 20 mM Tris-HCl pH 7.4, 20 °C, labelled compound. It is filed as biochemical, Homo sapiens.

Take `Nc1ncnc2c1ncn2[C@@H]1O[C@H](COP(=O)(O)OP(=O)(O)O)[C@@H](O)[C@H]1O` [ADP]: the “counter-exchange of internal ADP with external [14C]-ATP in proteoliposomes” value in data set [1] is “hetero-exchange between ATP and ADP was monitored over a 15-minute time course”.

In the case of `Nc1ncnc2c1ncn2[C@@H]1O[C@H](COP(=O)(O)OP(=O)(O)OP(=O)(O)O)[C@@H](O)[C@H]1O` [ATP], the “[14C]-ATP uptake into proteoliposomes, initial rates” value in data set [2] was “uptake rate of ATP was highest in the presence of externally added magnesium”.

B1: full-length human mitochondrial ATP-Mg/Pi carrier isoform 1 (APC1; SCaMC1/SLC25A24) (Homo sapiens) (protein)
chain: MLRWLRDFVLPTAACQDAEQPTRYETLFQALDRNGDGVVDIGELQEGLRNLGIPLGQDAEEKIFTTGDVNKDGKLDFEEFMKYLKDHEKKMKLAFKSLDKNNDGKIEASEIVQSLQTLGLTISEQQAELILQSIDVDGTMTVDWNEWRDYFLFNPVTDIEEIIRFWKHSTGIDIGDSLTIPDEFTEDEKKSGQWWRQLLAGGIAGAVSRTSTAPLDRLKIMMQVHGSKSDKMNIFGGFRQMVKEGGIRSLWRGNGTNVIKIAPETAVKFWAYEQYKKLLTEEGQKIGTFERFISGSMAGATAQTFIYPMEVMKTRLAVGKTGQYSGIYDCAKKILKHEGLGAFYKGYVPNLLGIIPYAGIDLAVYELLKSYWLDNFAKDSVNPGVMVLLGCGALSSTCGQLASYPLALVRTRMQAQAMLEGSPQLNMVGLFRRIISKEGIPGLYRGITPNFMKVLPAVGISYVVYENMKQTLGVTQK
notes: full length, N-terminal His8 tag + Factor Xa site (IEGR), tag cut by factor Xa; codon-optimised, expressed in S. cerevisiae mitochondria; purified in LMNG, reconstituted in PC/cardiolipin liposomes
For B1, the Km in “purified protein” is 29 ± 8 µM.
